“Also recorded” adds a separate entry of the source.
Key:
rat brain = assay: Immunohistochemistry (NeuN) of transplanted peptide-treated cells in rat brain; format: in vivo, rat (Wistar); settings: 1 × 10^5 peptide-treated cells transplanted into rat brain, 6 weeks; mean ± SEM; vs VHL(157–171): p < 0.01 for VHL(157–168), p < 0.005 for TAT
Method: To evaluate neuronal differentiation of transplanted cells in rat brains, immunohistochemical study was performed as described previously. Before grafting, cells were preincubated with red fluorescence PKH26PCL (Sigma, St. Louis, MO, USA). […] Rats were anesthetized with isoflurane before surgery, and 1 × 10^5 cells were transplanted into rat brain. The rats were perfused with periodate-lysine-paraformaldehyde solution 6 weeks after the transplantation. Their brains were subsequently dissected and postfixed in the same medium for 2 h, cryopreserved in 30% sucrose for 12 h, and then embedded in Tissue Tek OCT compound (Sakura, Tokyo, Japan). Cryostat coronal sections of 14-μm thickness were prepared for immunohistochemistry. For immunostaining, sections were incubated with primary antibody, anti-NeuN antibody, and then incubated in secondary antibody, FITC-conjugated anti-rabbit IgG. Counterstaining was done with DAPI. In immohistochemistry, observations were made with a confocal immunofluorescence microscope (FV300, Olympus, Tokyo, Japan).
Wistar rats (Clea, Tokyo, Japan) were used in all experiments and housed in a temperature controlled room on a 12-h day/night cycle with free access to food and water. All animal experimental procedures were approved by the Institutional Animal Use Committee of Yokohama City University (ID 153, 1 April 2015) and were in accordance with National Institutes of Health guidelines for care and use of laboratory animals.

[1] = system: skin-derived precursors (SKPs); assay: Immunocytochemistry of neuronal markers in NDD peptide-treated cells; format: cell-based, rat (neonate Wistar); settings: Figure 6B
Method: (§1) Rodent skin-derived precursor cells (SKPs), which can differentiate to neurons, were used. SKPs were previously isolated from the back dermis of neonate Wistar rats by the authors. These cells were cultured in growth medium composed of DMEM/F12 (1:1; Gibco, Grand Island, NY, USA) containing 2% B27 supplement (Gibco), 20 ng/mL epidermal growth factor (EGF; Upstate Biotechnology, Lake Placid, NY, USA), and 40 ng/mL bFGF (PeproTech EC Ltd., Rocky Hill, NJ, USA) in a humidified incubator at 37 °C with 5% CO2. The floating clusters of cultured cells were centrifuged and dissociated into a single-cell suspension by use of a Pasteur pipette with a flame-polished tip. These single cells were then re-suspended into at a concentration of 50,000 cells/mL for passage or experiments.
(§2) For neuronal differentiation, cells were dissociated into a single-cell suspension by use of a Pasteur pipette and re-suspended into a concentration of 50,000 cells/mL in DMEM/F12 without serum, neurotrophic factors or growth factors. Then, the cells were cultured on poly-L-lysine-coated dishes or cover glasses, and the synthesized peptides at concentrations from 1 to 5 μM were added to the culture medium and delivered into the cells. Three days or more later, the cells were used for morphological, immunocytochemical, immunohistochemical, electrophysiological and immunoprecipitation studies, as well as for Western blot analysis.
(§3) Cultured cells were fixed with 4% paraformaldehyde in PBS (Phosphate buffered saline) for 10 min at room temperature. Cells were incubated for 1 h at room temperature with primary antibodies. Antibodies against anti-MAP2 antibody (Sigma-Aldrich, St. Louis, MO, USA), anti-Neurofilment-H (NFH) antibody (Sigma-Aldrich), anti-NeuN antibody (Merk Millipore, Billerica, MA, USA), anti-GFAP antibody (DAKO, Santa Clara, CA, USA), anti-tyrosine hydroxylase (TH) antibody (Merk Millipore, Billerica, MA, USA), anti-choline acetyl transferase (ChAT) antibody (Abbiotec, San Diego, CA, USA), anti-glutamic acid decaboxylase (GAD) antibody (Enzo Life Sciences, Flamingdale, NY, USA), and anti-rhodopsin antibody (Santa Cruz, San Diego, CA, USA) were used. After incubation with primary antibody, the cells were incubated for 1 h with secondary antibody, either rhodamine-conjugated anti-mouse IgG (Sigma-Aldrich) or FITC-conjugated anti-rabbit IgG (Sigma-Aldrich). Nuclear counterstaining was done with DAPI (Molecular Probes, Eugene, OR, USA) or TO-PRO-3 (Molecular Probes), and observations were made with a fluorescence microscope system (FV300, Olympus, Tokyo, Japan). We counted the number of immuno-positive cells with a given antibody in 4 to 6 random non-overlapping visual fields (50–200 cells per field) in each experiment. At least 2 experiments were performed per condition. The degree of positivity was expressed as the rate of immuno-positive cells to the total number of nuclei stained with DAP1 or TO-PRO-3.

[2] = system: skin-derived precursors (SKPs); assay: Whole-cell patch-clamp electrophysiology; format: cell-based, rat (neonate Wistar); settings: five days after peptide addition at 3 μM, holding potential −80 mV, steps of 20 mV from −100 to 100 mV, VHL(157–168) vs VHL(157–171) p < 0.01
Method: as §1, §2
To record fast sodium and delayed rectifier potassium currents, we prepared extracellular and intracellular solutions as described previously. […] For recordings and data analysis we used CEZ-2300 (Nihon Kohden, Tokyo, Japan) and pCLAMP 6.0 software (Axon Instruments, Burlingame, CA, USA). Linear components of leak and capacitive currents were reduced by analogue circuitry and then canceled by the P/N method. Signals were sampled every 20 μs, and currents were filtered at 5 kHz. Data were additionally processed with Origin 5.0 (Microcal, Northhampton, MA, USA).

[3] = system: skin-derived precursors (SKPs); assay: Immunocytochemistry with anti-Neurofilament-H (NFH) antibody; format: cell-based, rat (neonate Wistar); settings: immunocytochemistry, peptides at 1 to 5 μM; mean ± SEM; vs VHL(157–171): p < 0.01 for VHL(157–168), p < 0.005 for TAT
Method: as §1, §2
as §3, with “After incubation with primary antibody, the cells were incubated for 1 h with secondary antibody, either rhodamine-conjugated anti-mouse IgG (Sigma-Aldrich) or FITC-conjugated anti-rabbit IgG (Sigma-Aldrich).” left out, “At least 2 experiments were performed per condition.” left out

[4] = system: skin-derived precursors (SKPs); assay: Neurite outgrowth / morphological evaluation of neuronal differentiation; format: cell-based, rat (neonate Wistar)
Method: as §1, §2
Neurite outgrowth with length exceeding the diameter of the neuronal soma is often assessed as a morphological index of neuronal differentiation. After a single-cell suspension was made by pipetting, the cells were cultured in DMEN/F12 medium alone at 37 °C in a 5% CO2 incubator. Thereafter, neurite outgrowth was evaluated with the following 4 levels: +++, for above 50% of the cells showing neurite outgrowth; ++, for 20–50% with neurite outgrowth; +, for 5–19% having neurite outgrowth; and −, for below 5% of the cells with neurite outgrowth.

JAK2 = assay: Western blotting of JAK2 before and after peptide treatment; format: cell-based, rat; settings: Western blot, Figure 5B, p < 0.01

## YARAAARQARATLKERCLQVVRSLVK [VHL(157–171), NDD in pVHL: BC-box motif plus five amino acids, conjugated with PTD]
Rat brain
  Positive rates of NeuN: 42.5 ± 4.5%
[1]
  Rate of GAD-positive (GABAnergic neuron-like) cells: high rates of positive cells
  Rate of TH-positive (dopaminergic neuron-like) cells: high rates of positive cells
  Rate of rhodopsin-positive cells: high rates of positive cells
[2]
  Voltage-gated outward K+ and inward Na+ currents: both large outward potassium currents and fast inward Na^+ currents
[3]
  Percentage of NFH-positive cells: 60.4 ± 6.4%
[4]; BC-box motif plus five C-terminal amino acids peptides, delivered with TAT PTD, 1 to 5 μM
  Neurite Outgrowth Activity: +++ (above 50% of the cells showing neurite outgrowth)
[4]; Figure 2A, rates of cells having neurites, peptides at 1 to 5 μM, VHL157–168 vs VHL(157–171) p < 0.005
  Neurite Outgrowth Activity: showed neurite outgrowth activity to the same extent as VHL(155–171); also recorded: greatest of rate of cells having neurites
JAK2
  JAK2 degradation: JAK2 and STAT3 were indeed degraded

Source: PMC5855688, “BC-Box Motif-Mediated Neuronal Differentiation of Somatic Stem Cells” (International Journal of Molecular Sciences, 2018)
